# Like-named read-outs stand apart in the source and are kept apart here.
# What was measured:
# [1] = system: HL-60 human promyelocytic leukemia; experiment: In vitro anti-tumor IC50 (MTT), HL-60; assay type: cell-based; conditions: Table 4
# Procedure: (§1) (1) Single cell suspension was seeded into 96-well plates (the cells was diluted in the PRMI-1640 minimum medium to 3×10^4 cells/ml, […] diluted cells/well). […] The experiments were performed in quadruplicate.
# (§2) (2) The medium was removed. Solutions of the anti-tumor agents (50 compounds) were prepared in a freshly prepared medium at serial concentrations. […] of the solution was added into each well. Incubation was continued for 48 hours.
# (§3) (3) 20 ug of 2 mg/ml MTT was added into each well, and incubated for 4 hours.
# (§4) (4) The medium was removed from the well. The microplates were swiftly turned down to throw-off the medium. […] of DMSO was added into each well, and vortexed at room temperature for 10 minutes.
# (§5) (5) OD value (λ=570 nm) was measured with an Enzyme-Linked Detector.
# (§6) (6) The graph of cell vitality was plotted, and IC50 was calculated.
# [2] = system: mouse grafted uterine cervix cancer U14; experiment: Activity against mouse grafted uterine cervix cancer U14; assay type: in vivo, Kunming mice; conditions: 30 mg/kg; for Tumor weight: X ± SD, n = 10
# Procedure: (§7) The experiments were performed according to “Guideline for New Drugs (Western medicines) in Pre-clinical Stages” issued by Bureau of Drug Policy & Administration of the People's Republic of China, and the relevant methods in “Methodology of Pharmaceutical Experiments”, Xu Shuyun et al. ed. 120 male Kunming mice weighting […] were allowed to grow 3 days. No abnormality was observed. The mice were routinely inoculated in oxter with mouse sarcoma S-180, and weighted 4 hrs. after inoculation. The mice were randomly divided into 12 groups, 10 mice/group. Group 1 was given 0.3 ml of physiological saline as negative control; Group 2 was given 5-FU as positive control, 0.6 mg/mouse; Group 3 was given hydroxycamptothecine as positive control, 0.02 mg/mouse. Groups 4, 5 and 6 were injected with 10% Compound 6, 0.4 ml/mouse, 0.2 ml/mouse, and 0.1 ml/mouse, respectively. Groups 7, 8 and 9 were injected with 10% Compound 8, 0.4 ml/mouse, 0.2 ml/mouse, and 0.1 ml/mouse, respectively. Groups 10, 11, and 12 were injected with 10% Compound 20, 0.4 ml/mouse, 0.2 ml/mouse, and 0.1 ml/mouse, respectively. The tested compounds were administered on the next day after inoculation, once a day on alternate days, 6 doses totally administered. On the next day after the end dose, the mice were weighed and sacrificed. After the tumor was excised, body weight and tumor weight were recorded. The tumor inhibition rate was calculated based on the following formula: [(average tumor weight of the control groups−average tumor weight of the experimental groups)/average tumor weight of the control groups]×100%. The data was processed statistically. The above experiments were repeated three times.
# (§8) The experiments were identical with the experiments for activity against mouse grafted sarcoma S-180, except the following:
# (1) the tumor cell line inoculated was mouse grafted uterine cervix cancer U14;
# (2) all the mice were female.
# mouse lung cancer Lewis = experiment: Activity against mouse grafted lung cancer Lewis; assay type: in vivo, Kunming mice; conditions: Lewis, 30 mg/kg; for Tumor weight: X ± SD, n = 10
# Procedure: as §7, §8
# (1) the tumor cell line inoculated was mouse lung cancer Lewis;
# (2) Compound 6, Compound 8 and Compound 21 were not tested for their activity;
# (3) the mice were divided into six groups.
# [3] = system: Bel-7402 human hepatic carcinoma; experiment: In vitro anti-tumor IC50 (MTT), Bel-7402; assay type: cell-based; conditions: Table 4
# Procedure: as §1, §2, §3, §4, §5, §6
# [4] = system: mouse grafted liver cancer H22; experiment: Activity against mouse grafted liver cancer H22; assay type: in vivo, Kunming mice; conditions: for Tumor weight: X ± SD, n = 10
# Procedure: as §7
# The experiments were identical with the experiments for activity against mouse grafted sarcoma S-180, except that the cell line inoculated was liver cancer H22. The experiments were repeated three times.
# [5] = system: A-549 human lung adenocarcinoma; experiment: In vitro anti-tumor IC50 (MTT), A-549; assay type: cell-based; conditions: Table 4
# Procedure: as §1, §2, §3, §4, §5, §6
# [6] = system: Hela human cervical carcinoma; experiment: In vitro anti-tumor IC50 (MTT), Hela; assay type: cell-based; conditions: Table 4
# Procedure: as §1, §2, §3, §4, §5, §6
# [7] = system: MCF-7 human mammary adenocarcinoma; experiment: In vitro anti-tumor IC50 (MTT), MCF-7; assay type: cell-based; conditions: Table 4
# Procedure: as §1, §2, §3, §4, §5, §6
# [8] = system: mouse grafted sarcoma S-180; experiment: Activity against mouse grafted sarcoma S-180; assay type: in vivo, Kunming mice; conditions: for Inhibition rate (%) / Tumor weight: 30 mg/kg i.v., 6 doses; for Tumor weight: X ± SD, n = 10
# Procedure: (1) Experimental animals: Kunming mice weighting 18-22 g;
# (2) 100 mg/ml solutions of the 3 compounds were prepared, respectively, in water for injection (1% surface surfactant was added into the solution of Compound 6). 5-FU and camptothecine, 30 mg/kg and 1 mg/kg, respectively, were used as positive controls;
# 3. Route of Administration: Intravenous Injection.
# as §7
# [9] = Solubility in water (observation); assay type: physicochemical
# [10] = system: U-937 human histocytic lymphoma; experiment: In vitro inhibition rate to tumor cells (MTT), U-937; assay type: cell-based; conditions: Homo sapiens, U-937, 50 μg/ml, read-out: inhibition rate, Results (%) U-937
# [11] = system: LLC mouse Lewis lung carcinoma; experiment: In vitro inhibition rate to tumor cells (MTT), LLC; assay type: cell-based; conditions: Mus musculus, Lewis lung carcinoma, 50 μg/ml
# [12] = system: Hela human cervical carcinoma; experiment: In vitro inhibition rate to tumor cells (MTT), Hela; assay type: cell-based; conditions: Homo sapiens, HeLa, 50 μg/ml, read-out: inhibition rate, Results (%) Hela
# [13] = system: MCF-7 human mammary adenocarcinoma; experiment: In vitro inhibition rate to tumor cells (MTT), MCF-7; assay type: cell-based; conditions: Homo sapiens, MCF7, 50 μg/ml, read-out: inhibition rate, Results (%) MCF-7
# [14] = system: A-549 human lung adenocarcinoma; experiment: In vitro inhibition rate to tumor cells (MTT), A-549; assay type: cell-based; conditions: Homo sapiens, A549, 50 μg/ml, read-out: inhibition rate, Results (%) A-549
# [15] = system: SMMC-7721 human hepatic carcinoma; experiment: In vitro inhibition rate to tumor cells (MTT), SMMC-7721; assay type: cell-based; conditions: Homo sapiens, SMMC-7721, 50 μg/ml, read-out: inhibition rate, Results (%) SMMC-7721
# [16] = system: Bel-7402 human hepatic carcinoma; experiment: In vitro inhibition rate to tumor cells (MTT), Bel-7402; assay type: cell-based; conditions: Homo sapiens, Bel-7402, 50 μg/ml, read-out: inhibition rate, Results (%) Bel-7402
# [17] = system: HL-60 human promyelocytic leukemia; experiment: In vitro inhibition rate to tumor cells (MTT), HL-60; assay type: cell-based; conditions: Homo sapiens, HL-60, 50 μg/ml, read-out: inhibition rate, Results (%) HL-60
# [18] = system: influenza B virus (Jifang 97-13); experiment: Screening for the activity against influenza B virus (CPE in MDCK cells)
# [19] = system: influenza A virus (Jifang 90-15); experiment: microbe, parasite or virus in culture; assay type: cell-based
# MDCK (dog kidney) cells = experiment: Toxicity TC50 of the samples in MDCK cells (influenza screening); conditions: concentration of 50% toxicity
# [20] = H22, first experiment, 30 mg/kg i.v., 6 doses
# [21] = H22, second experiment, 30 mg/kg
# [22] = H22, third experiment, 30 mg/kg
structure (smiles),measurement,setting,value
"O=c1[nH]cc(F)c(=O)[nH]1 [Compound 5-FU, reference compound]","IC50 (ug/ml) against tumor cell lines, HL-60",[1],0.51 µg/mL
same,Inhibition rate (%),"[2]; U14, first experiment",40.2%
same,Tumor weight,"[2]; U14, first experiment",2.10 ± 0.31 g
same,Inhibition rate (%),"[2]; U14, second experiment",42.6%
same,Tumor weight,"[2]; U14, second experiment",1.95 ± 0.31 g
same,Inhibition rate (%),"[2]; U14, third experiment",42.0%
same,Tumor weight,"[2]; U14, third experiment",2.10 ± 0.31 g
same,Average weight (g)-after administration,"[2]; mouse, in vivo",21.0 g
same,Average weight(g)-after administration,"[2]; mouse, in vivo",21.3 g
same,Inhibition rate (%),mouse lung cancer Lewis; first experiment,55.0%
same,Tumor weight,mouse lung cancer Lewis; first experiment,1.34 ± 0.31 g
same,Inhibition rate (%),mouse lung cancer Lewis; second experiment,54.3%
same,Tumor weight,mouse lung cancer Lewis; second experiment,1.10 ± 0.31 g
same,Inhibition rate (%),mouse lung cancer Lewis; third experiment,53.7%
same,Tumor weight,mouse lung cancer Lewis; third experiment,1.25 ± 0.31 g
same,"IC50 (ug/ml) against tumor cell lines, Bel-7402",[3],0.54 µg/mL
same,Inhibition rate (%),[4]; [20],60.0%
same,Tumor weight,[4]; [20],1.21 ± 0.31 g
same,Inhibition rate (%),[4]; [21],60.5%
same,Tumor weight,[4]; [21],1.19 ± 0.31 g
same,Inhibition rate (%),[4]; [22],64.2%
same,Tumor weight,[4]; [22],1.08 ± 0.31 g
same,Average weight (g)-after administration,"[4]; mouse, in vivo, 30 mg/kg",20.3 g
same,Average weight(g)-after administration,"[4]; mouse, in vivo, 30 mg/kg",21.3 g
same,Average weight(g)-after administration,"[4]; mouse, in vivo, iv, 30 mg/kg",22.3 g
same,"IC50 (ug/ml) against tumor cell lines, A-549",[5],0.7 µg/mL
same,"IC50 (ug/ml) against tumor cell lines, Hela",[6],2.86 µg/mL
same,"IC50 (ug/ml) against tumor cell lines, MCF",[7],1.53 µg/mL
same,Inhibition rate (%),"[8]; S-180, first experiment",71.2%
same,Tumor weight,"[8]; S-180, first experiment",0.72 ± 0.23 g
same,Inhibition rate (%),"[8]; S-180, second experiment",69.6%
same,Tumor weight,"[8]; S-180, second experiment",0.79 ± 0.33 g
same,Average weight (g)-after administration,"[8]; mouse, in vivo, iv, 30 mg/kg",22.9 g
same,Average weight(g)-after administration,"[8]; mouse, in vivo, iv, 30 mg/kg",21.9 g
"CC(C)C1CC23OC1(O)CC(O)(CO)C2CCC3C (centres unmarked) [Compound 32, Curcumol dihydroxy compound]",solubility in water (in words),[9],very big
same,inhibition at 50 µg/mL,[10]; Table 1,65.3%
same,inhibition at 50 µg/mL,[10]; Table 2 (repeated screening),67.2%
same,inhibition at 50 µg/mL,[11]; Table 1,7.27%
same,inhibition at 50 µg/mL,[11]; Table 2 (repeated screening),7.05%
same,inhibition at 50 µg/mL,[12]; Table 1,84.3%
same,inhibition at 50 µg/mL,[12]; Table 2 (repeated screening),80.1%
same,inhibition at 50 µg/mL,[13]; Table 1,65.1%
same,inhibition at 50 µg/mL,[13]; Table 2 (repeated screening),65%
same,inhibition at 50 µg/mL,[14]; Table 1,-12.5%
same,inhibition at 50 µg/mL,[14]; Table 2 (repeated screening),-12.5%
same,inhibition at 50 µg/mL,[15]; Table 1,80%
same,inhibition at 50 µg/mL,[15]; Table 2 (repeated screening),82.6%
same,inhibition at 50 µg/mL,[16]; Table 1,4.23%
same,inhibition at 50 µg/mL,[16]; Table 2 (repeated screening),4.23%
same,inhibition at 50 µg/mL,[17]; Table 1,14%
same,inhibition at 50 µg/mL,[17]; Table 2 (repeated screening),13.4%
NC(=O)c1ncn([C@@H]2O[C@H](CO)[C@@H](O)[C@H]2O)n1 [RBV],"IC50, influenza B virus",[18]; CPE in MDCK cells,6.17 µg/mL
same,"SI, influenza B virus",[18]; SI = TC50/IC50,324.15
same,"IC50, influenza A virus",[19]; CPE in MDCK cells,2.06 µg/mL
same,"SI, influenza A virus",[19]; SI = TC50/IC50,970.87
same,TC50,MDCK (dog kidney) cells,>2000 µg/mL

# Reference: patent publication US7700584B2 (Hangzhou Minsheng Pharmaceuticals Co., Ltd., priority 2004, dated 2010)
